Assay results published in article PMC10197068 (Bioconjugate Chemistry, 2023).
Several values for one entry are separate records, joined by “and”; a condition that tells them apart may be missing. Identical values can stand only once.

Legend:
[1] = system: G1 (DNA, G4) AGGGTTAGGGTTAGGGTTAGGG; test: CD melting at 295 nm; conditions: 100 mM NaCl, 10 mM Li cacodylate, pH 7.3, 6 μM DNA
[2] = system: G2T6 (DNA, G4) AGGGTTAGGGTTAGGGTTAGGGTTATTATTATTATTATTAGGGTTAGGGTTAGGGTTAGGG; test: CD melting at 295 nm; conditions: 100 mM NaCl; 10 mM Li cacodylate, pH 7.3; 6 μM compound (12 μM salphen units), 3 μM DNA
[3] = system: CT-DNA (duplex DNA); test: Emission titration with duplex DNA; type: binding; conditions: CT-DNA up to 50 base pair equivalents; 100 mM KCl, 10 mM Li cacodylate, pH 7.3; ligand 2 μM
Experimental: Next, emission titrations were carried out with the emissive Pt^II compounds M2 and D3–8 and G4/duplex DNA to obtain association constants. Both Na^+ and K^+ stabilized monomeric and dimeric G4 DNA were investigated. Additionally, titrations were carried out with CT-DNA to evaluate the selectivity for G4 versus duplex DNA. Figure 5 summarizes the obtained results (see Figures S24–S37 and Table S2 for a full set of titration data). First discussed are the experiments conducted in Na^+ buffer, in which the G4 topology formed is antiparallel.[41] […] As discussed previously, this could potentially be caused by a “sandwiched” binding mode in which the metal-salphen complex sits between two G-quadruplex units. For dimeric metal-salphen complexes D3–8, however, there are several differences when compared to the CD melting studies. […] Upon increasing the linker length to a two-amino-acid sequence (RR and KK for compounds D4 and D5, respectively), larger Ka values were obtained with minimal change to the pattern of selectivity. […] Increasing the linker length to an eight-amino-acid sequence (RRRRRRRR) led to a similar stabilization of G2T6, while G1 stabilization increased. […]
G-Quadruplex oligonucleotides were purchased from Eurogentec (Belgium), and CT-DNA was purchased from Sigma-Aldrich. Stock solutions were prepared via dilution in the appropriate buffers to concentrations of 300–400 μM determined by UV–vis measurements in which increasing amounts of DNA were added to a cuvette and the absorbance at 260 nm recorded using an Agilent Cary UV 60 spectrometer. […]
Experiments were carried out using a BMG Clariostar Microplate reader with Greiner Bio-One half-volume (100 μL/well) plates. Excitation was carried out at 440 nm and recorded from 500 to 700 nm in addition to a matrix scan at 590 nm. […]
Fluorescence response (y) was fitted against DNA concentration (x); R is the machine response, K is the association constant of ligand and DNA, L is the concentration of ligand, and n is the number of binding sites per DNA. […]

[4] = system: G1 (Na+) monomeric HTelo G4 DNA; test: Emission titration with G1 (Na+); type: binding, human; conditions: Table S2, unit not given, ligand 2 μM, 100 mM NaCl, 10 mM Li cacodylate, pH 7.3, exc 440 nm, em 590 nm, triplicate
Experimental: (§1) Next, emission titrations were carried out with the emissive Pt^II compounds M2 and D3–8 and G4/duplex DNA to obtain association constants. Both Na^+ and K^+ stabilized monomeric and dimeric G4 DNA were investigated. Additionally, titrations were carried out with CT-DNA to evaluate the selectivity for G4 versus duplex DNA. Figure 5 summarizes the obtained results (see Figures S24–S37 and Table S2 for a full set of titration data). First discussed are the experiments conducted in Na^+ buffer, in which the G4 topology formed is antiparallel.[41] […] As discussed previously, this could potentially be caused by a “sandwiched” binding mode in which the metal-salphen complex sits between two G-quadruplex units. For dimeric metal-salphen complexes D3–8, however, there are several differences when compared to the CD melting studies. […] Upon increasing the linker length to a two-amino-acid sequence (RR and KK for compounds D4 and D5, respectively), larger Ka values were obtained with minimal change to the pattern of selectivity. […] Increasing the linker length to an eight-amino-acid sequence (RRRRRRRR) led to a similar stabilization of G2T6, while G1 stabilization increased.
(§2) G-Quadruplex oligonucleotides were purchased from Eurogentec (Belgium), and CT-DNA was purchased from Sigma-Aldrich. Stock solutions were prepared via dilution in the appropriate buffers to concentrations of 300–400 μM determined by UV–vis measurements in which increasing amounts of DNA were added to a cuvette and the absorbance at 260 nm recorded using an Agilent Cary UV 60 spectrometer. Prior to use, the DNA stock solutions were annealed by heating at 95 °C for 5 min and then cooling to room temperature overnight.
(§3) Experiments were carried out using a BMG Clariostar Microplate reader with Greiner Bio-One half-volume (100 μL/well) plates. Excitation was carried out at 440 nm and recorded from 500 to 700 nm in addition to a matrix scan at 590 nm. Titrations were carried out using G1, G2T1, and G2T6 (Na^+) G4 DNA (100 mM NaCl, 10 mM Li cacodylate, pH 7.3); G1, G2T1, and G2T6 (K^+) G4 DNA (100 mM KCl, 10 mM Li cacodylate, pH 7.3); and CT-DNA (100 mM KCl, 10 mM Li cacodylate, pH 7.3). Ligand concentration was kept constant at 2 μM, and the following DNA equivalents were tested: 0, 0.1, 0.2, 0.3, 0.4, 0.5, 0.75, 1, 1.5, 2, 3, and 5 (for CT-DNA 10× base pair equivalents were used, i.e., 1 to 50 BPE). Sample preparation was carried out by preparing stock solutions of double concentration ligand (4 μM) and DNA in the appropriate buffer, before 50 μL of each was added to the appropriate well and mixed. Experiments were conducted in triplicate and binding constants were obtained by curve fitting in Graphpad Prism 8 using eq 1.[46] [drawing 1] 1
(§4) Fluorescence response (y) was fitted against DNA concentration (x); R is the machine response, K is the association constant of ligand and DNA, L is the concentration of ligand, and n is the number of binding sites per DNA. The values of L and n were varied so that that the L was equal to the number of salphen units and n was equal to the number of G4 faces per DNA. The matrix scan results were used to plot the titration curves and 500–700 nm scan results were used to confirm that expected curve shapes and shifts were observed.

[5] = system: G2T1 (K+) dimeric HTelo G4 DNA; test: Emission titration with G2T1 (K+); type: binding, human; conditions: Table S2, unit not given, ligand 2 μM, 100 mM KCl, 10 mM Li cacodylate, pH 7.3, exc 440 nm, em 590 nm, triplicate
Experimental: as §1, §2, §3, §4

[6] = system: G2T6 (Na+) dimeric HTelo G4 DNA, AGGG(TTAGGG)3(TTA)5(TTAGGG)4; test: CD melting with G2T6 (Na+); type: binding, human; conditions: CD melting at 295 nm, 25 to 95 °C at 2 °C/min; 100 mM NaCl, 10 mM Li cacodylate, pH 7.3; [G4 unit] 6 μM (3 μM dimeric sequence), [salphen unit] 12 μM
Experimental: (§5) Next, the DNA binding properties of the monomeric and dimeric compounds were studied. […] The following notation is used: […] The CD melting experiments were conducted solely with Na^+ stabilized DNA, which forms an antiparallel topology in solution (cf., in the presence of K^+ a mixture of topologies is observed). During the assay the temperature was increased from 25 to 95 °C upon which the intensity of signals with negative ellipticity at ca. 265 nm and positive ellipticity at ca. 295 (characteristic of an antiparallel G4 structure) decreased-see Figure 4a. This indicates the expected unfolding of the G4 DNA structure as the temperature increases. The changes in intensity were subsequently used to produce the corresponding melting curves (Figure 4b) for each sequence in the absence and presence of the different compounds under study. From these curves, the ΔTm values for the different sequences and compounds were determined, and the results are summarized in Figure 4c (see Supplementary Table 1 for values). […] G-Quadruplex oligonucleotides were purchased from Eurogentec (Belgium), and CT-DNA was purchased from Sigma-Aldrich. […] Prior to use, the DNA stock solutions were annealed by heating at 95 °C for 5 min and then cooling to room temperature overnight. Experiments were carried out on a Jasco J-810 spectrophotometer using a 1 cm quartz cuvette. Temperature was controlled using a Peltier module. The signal at 295 nm was monitored as temperature was increased for 25 to 95 °C at a rate of 2 °C/min. CD melting experiments were carried out with the appropriate G4 DNA (100 mM NaCl, 10 mM Li cacodylate, pH 7.3). Sample preparation was carried out by combining stock solutions of ligand and DNA in the appropriate buffer. […] Melting temperatures were obtained by curve fitting in Graphpad Prism 8. The data was normalized and fitted to a variable slope Hill equation, and the melting temperature was defined at the temperature at which y = 0.5.

[7] = system: G2T6 (K+) dimeric HTelo G4 DNA; test: Emission titration with G2T6 (K+); type: binding, human; conditions: Table S2, unit not given, ligand 2 μM, 100 mM KCl, 10 mM Li cacodylate, pH 7.3, exc 440 nm, em 590 nm, triplicate
Experimental: as §1, §2, §3, §4

[8] = system: G2T6 (Na+) dimeric HTelo G4 DNA; test: Emission titration with G2T6 (Na+); type: binding, human; conditions: Table S2, unit not given, ligand 2 μM, 100 mM NaCl, 10 mM Li cacodylate, pH 7.3, exc 440 nm, em 590 nm, triplicate
Experimental: as §1, §2, §3, §4

[9] = system: G2T1 (Na+) dimeric HTelo G4 DNA, AGGG(TTAGGG)7; test: CD melting with G2T1 (Na+); type: binding, human; conditions: CD melting at 295 nm, 25 to 95 °C at 2 °C/min; 100 mM NaCl, 10 mM Li cacodylate, pH 7.3; [G4 unit] 6 μM (3 μM dimeric sequence), [salphen unit] 12 μM
Experimental: as §5

[10] = system: G2T1 (Na+) dimeric HTelo G4 DNA; test: Emission titration with G2T1 (Na+); type: binding, human; conditions: Table S2, unit not given, ligand 2 μM, 100 mM NaCl, 10 mM Li cacodylate, pH 7.3, exc 440 nm, em 590 nm, triplicate
Experimental: as §1, §2, §3, §4

[11] = system: G1 (Na+) monomeric HTelo G4 DNA, AGGG(TTAGGG)3; test: CD melting with G1 (Na+); type: binding, human; conditions: CD melting at 295 nm, 25 to 95 °C at 2 °C/min; 100 mM NaCl, 10 mM Li cacodylate, pH 7.3; [G4 unit] 6 μM, [salphen unit] 12 μM
Experimental: as §5

[12] = system: G1 (K+) monomeric HTelo G4 DNA; test: Emission titration with G1 (K+); type: binding, human; conditions: Table S2, unit not given, ligand 2 μM, 100 mM KCl, 10 mM Li cacodylate, pH 7.3, exc 440 nm, em 590 nm, triplicate
Experimental: as §1, §2, §3, §4

[13] = system: human osteosarcoma U2OS cells
Experimental: Cytotoxicity studies of compounds were carried out on a U-2 OS cell line (human osteosarcoma cells). These cells were grown on culture medium McCoy’s 5A Medium supplemented with 10% FBS (Fetal Bovine Serum) in an atmosphere of 95% air and 5% CO2 at 37 °C. Inhibition of cell growth induced by the tested compound was evaluated using a MTT assay. The cells were seeded in a sterile 96-well plate at a density of 15,000 cells per well and incubated for 24 h in growth medium. Afterward, the compound dissolved in H2O or DMSO was added to the cells maintaining the same proportion of solvent in each well. After 48 h of incubation in an atmosphere of 95% air and 5% CO2 at 37 °C, 10 μL of 5 mg/mL MTT prepared in PBS (0.136 M NaCl, 1.47 mM KH2PO4, 8 mM NaH2PO4, and 2.68 mM KCl) was added to each well, and the cell plate was incubated for another 4 h. […] Finally, absorbance of the cell plate was measured at a wavelength of 595 nm (Tecan M1000 infinite Pro). […] The absorbance measurement range was assessed between one value (average of triplicate points) containing 15,000 cells in McCoy’s 5A medium and in the absence of growth factors (which allows to determine the stable cell concentration) and another value (average of triplicate points) containing the usual growth medium (which allows to measure the maximum cell growth at 48 h). […]

[14] = Precipitation on addition to DNA solution (CD melting conditions); type: physicochemical; conditions: CD melting concentrations: dimeric salphen 6 μM, G1 6 μM or G2Tx 3 μM; 100 mM NaCl, 10 mM Li cacodylate, pH 7.3
Experimental: First, circular dichroism (CD) melting experiments were carried out with compounds D1–8 and their monomeric analogues M1–2 via the combination of DNA and compound in which the ratio of salphen units to G4 external tetrads was kept at a constant ratio of 2:1, i.e., [monomeric salphen] = 12 μM, [dimeric salphen] = 6 μM, [G1] = 6 μM, and [G2Tx] = 3 μM. The CD melting experiments were conducted solely with Na^+ stabilized DNA, which forms an antiparallel topology in solution (cf., in the presence of K^+ a mixture of topologies is observed). During the assay the temperature was increased from 25 to 95 °C upon which the intensity of signals with negative ellipticity at ca. 265 nm and positive ellipticity at ca. 295 (characteristic of an antiparallel G4 structure) decreased—see Figure 4a. This indicates the expected unfolding of the G4 DNA structure as the temperature increases. […] From these curves, the ΔTm values for the different sequences and compounds were determined, and the results are summarized in Figure 4c (see Supplementary Table 1 for values).
Experiments were carried out on a Jasco J-810 spectrophotometer using a 1 cm quartz cuvette. […] The signal at 295 nm was monitored as temperature was increased for 25 to 95 °C at a rate of 2 °C/min. […]

C[N+](C)(C)CCOc1ccc(C=Nc2ccc(C(=O)NCc3cn(CC(=O)N[C@@H](CCCCN)C(=O)N[C@@H](CCCCN)C(=O)N[C@@H](Cn4cc(CNC(=O)c5ccc(N=Cc6ccc(OCC[N+](C)(C)C)cc6[O-])c(N=Cc6ccc(OCC[N+](C)(C)C)cc6[O-])c5)nn4)C(N)=O)nn3)cc2N=Cc2ccc(OCC[N+](C)(C)C)cc2[O-])c([O-])c1.[Pt+2].[Pt+2]
ΔTm ([1]; 6 μM compound (12 μM salphen units)): 5.5 °C

C[N+](C)(C)CCOc1ccc(C=Nc2ccc(C(=O)NCc3cn(CCOCCn4cc(CNC(=O)c5ccc(N=Cc6ccc(OCC[N+](C)(C)C)cc6[O-])c(N=Cc6ccc(OCC[N+](C)(C)C)cc6[O-])c5)nn4)nn3)cc2N=Cc2ccc(OCC[N+](C)(C)C)cc2[O-])c([O-])c1.[Pt+2].[Pt+2]
ΔTm ([1]; 6 μM compound, b22 states 1.1–1.5 °C for D1–4): 3.0 °C | ΔTm [2]: 6.4 °C

C[N+](C)(C)CCOc1ccc2c(c1)[O][Pt][O]c1cc(OCC[N+](C)(C)C)ccc1C=Nc1ccccc1N=C2 [Compound M2, reference compound]
Ka for duplex DNA [3]: 7.31 × 10^4 M^–1 | Association constant G1 (Na+), mean [4]: 1.70 | Association constant G2T1 (K+), mean [5]: 0.80 | ΔTm G2T6 (Na+) [6]: 19.55 °C and 19 °C | Association constant G2T6 (K+), mean [7]: 1.44 | Association constant G2T6 (Na+), mean [8]: 2.93 | ΔTm G2T1 (Na+) [9]: 21.67 °C and 21 °C | Association constant G2T1 (Na+), mean [10]: 1.70 | ΔTm G1 (Na+) [11]: 12.72 °C | Association constant G1 (K+), mean [12]: 2.00

RRRRRRRR [Compound D8]
Association constant G1 (Na+), mean [4]: 0.47 | Association constant G2T1 (K+), mean [5]: 0.22 | Association constant G2T6 (K+), mean [7]: 0.38 | IC50 [13]: 43 µM | precipitation on addition to the DNA solution [14]: caused precipitation | Association constant G2T6 (Na+), mean [8]: 0.75 | Association constant G2T1 (Na+), mean [10]: 0.31 | Association constant G1 (K+), mean [12]: 0.84
